Starred links: 1 amine or outer side, 2 acyl side, 3 side chain; linkers in the order of their positions; H or OH if unused. Positions of bridges follow the written chain, without caps; N, C: chain ends. Non-standard residues stand in square brackets, D forms with d. Residues, ends and D or L forms follow the SMILES beside them. *: point of attachment. Octatrienoyl(2E,4E,6E) = C/C=C/C=C/C=C/C(=O)*; Pro(4R-Me) = C[C@H]1CN[C@H](C(=O)O)C1; AMC = Cc1cc(=O)oc2cc(N*)ccc12; Suc = O=C(CCC(=O)[*:2])[*:1]; NMeA = CN[C@@H](C)C(=O)O
How the values were obtained:
[1] = target: T1, ClpP1P2 (Streptomyces hawaiiensis, UniProt A0A6G5RDH7); assay: peptidase activation assay, Suc-LY-AMC; assay type: biochemical; settings: activator binding via ClpP1; 10 μM ADEP1, 4 μM total ClpP, pH 7.5, 30°C
T1 construct: gene clpP; untagged full-length ClpP1 mixed with C-terminally His6-tagged full-length ClpP2, expressed in E. coli SG1146a; heterotetradecamer of two homoheptameric rings; with ATP-dependent Clp protease proteolytic subunit 2

[2] = target: T2, ClpC1 (Streptomyces hawaiiensis, UniProt A0A6G5RIJ6); settings: 100 nM ATP, beta-casein, 30°C; ClpC1 alone and with ClpP1P2; unaffected by ADEP1
T2 construct: gene CEB94_23085
T2 sequence (A0A6G5RIJ6 1-841): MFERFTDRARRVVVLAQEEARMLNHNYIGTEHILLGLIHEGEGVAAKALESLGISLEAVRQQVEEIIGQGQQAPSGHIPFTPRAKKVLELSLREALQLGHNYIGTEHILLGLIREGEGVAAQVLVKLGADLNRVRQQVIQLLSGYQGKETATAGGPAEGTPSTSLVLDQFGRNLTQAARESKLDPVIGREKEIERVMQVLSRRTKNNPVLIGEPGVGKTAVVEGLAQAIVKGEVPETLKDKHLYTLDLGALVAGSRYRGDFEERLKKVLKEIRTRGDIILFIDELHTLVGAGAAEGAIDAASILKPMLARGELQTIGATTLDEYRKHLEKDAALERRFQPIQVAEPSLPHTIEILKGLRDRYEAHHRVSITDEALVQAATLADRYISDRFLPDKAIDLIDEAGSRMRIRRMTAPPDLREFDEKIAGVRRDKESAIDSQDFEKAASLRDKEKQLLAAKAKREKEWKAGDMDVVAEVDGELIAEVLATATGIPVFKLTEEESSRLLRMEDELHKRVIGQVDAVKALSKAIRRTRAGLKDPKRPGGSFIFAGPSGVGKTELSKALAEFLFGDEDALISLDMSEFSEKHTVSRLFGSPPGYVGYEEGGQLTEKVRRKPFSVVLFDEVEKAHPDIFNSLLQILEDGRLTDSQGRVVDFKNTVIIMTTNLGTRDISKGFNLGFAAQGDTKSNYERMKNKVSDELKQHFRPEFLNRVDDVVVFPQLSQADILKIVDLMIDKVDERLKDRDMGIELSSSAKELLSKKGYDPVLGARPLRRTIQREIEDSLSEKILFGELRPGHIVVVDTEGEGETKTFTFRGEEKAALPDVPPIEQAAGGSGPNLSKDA

[3] = target: T3, ClpP1 (Streptomyces hawaiiensis, UniProt A0A6G5RDH7); assay: fluorogenic peptidase assay; assay type: biochemical; settings: with ADEP1 as activator; 100 μM substrate, pH 7.5, 30°C
T3 construct: gene clpP; full-length unprocessed, untagged, expressed in E. coli SG1146a (clpP deletion), anion exchange; ADEP-induced processing between G24 and P25
T3 sequence (A0A6G5RDH7 1-219): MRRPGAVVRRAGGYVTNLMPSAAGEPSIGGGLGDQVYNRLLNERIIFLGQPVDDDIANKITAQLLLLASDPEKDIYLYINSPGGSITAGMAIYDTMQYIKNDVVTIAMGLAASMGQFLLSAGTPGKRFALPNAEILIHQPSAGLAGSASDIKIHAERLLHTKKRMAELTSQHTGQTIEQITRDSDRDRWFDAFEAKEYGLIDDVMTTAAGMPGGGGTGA

[4] = target: the molecule itself; assay: native gel or EMSA; native PAGE without cross-linker, with ADEP1: ClpP1 and ClpP2 (10 μM each) with 60 μM or 25 μM ADEP1 (ClpP:ADEP1 1:3 or 1:1.25), 3 h at 30°C; immunoblot with anti-ClpP1 or anti-6His
[5] = target: the molecule itself; assay: SEC; Superdex 200 Increase 10/300 GL; 80 μM protein, DMSO (no ADEP1), 30 min at 30°C; buffer GF (50 mM HEPES-KOH, 150 mM KCl, 20 mM MgCl2, 10% glycerol, 1 mM DTT, pH 7.5)

Question: For `C/C=C/C=C/C=C/C(=O)N[C@@H](Cc1ccccc1)C(=O)N[C@H]1COC(=O)[C@@H]2C[C@@H](C)CN2C(=O)[C@H](C)NC(=O)[C@H](C)N(C)C(=O)[C@@H]2CCCN2C1=O` [ADEP1] ({Octatrienoyl(2E,4E,6E)}-FSP[NMeA]A[Pro(4R-Me)]; ester 2-C), which “peptidase activation assay, Suc-LY-AMC” value [1] is on record?
Answer: Its value is “ADEP1 clearly induced the hydrolysis of Suc-LY-AMC by either ClpP1 alone or by the mixed complex”.

Question: For `Nc1ncnc2c1ncn2[C@@H]1O[C@H](COP(=O)(O)OP(=O)(O)OP(=O)(O)O)[C@@H](O)[C@H]1O` [ATP], which “ADP-Glo ATP turnover assay” value [2] is on record?
Answer: Its value is “directly measured the turnover of ATP to ADP by ClpC1 in casein degradation assays”.

Question: With `Cc1cc(=O)oc2cc(NC(=O)[C@H](Cc3ccc(O)cc3)NC(=O)[C@H](CC(C)C)NC(=O)CCC(=O)O)ccc12` [Suc-LY-AMC] (Suc-Leu-Tyr-{AMC}) as the molecule, how does the fluorogenic peptidase assay [3] read?
Answer: Its fluorogenic peptidase assay is “ADEP1 clearly induced the hydrolysis of Suc-LY-AMC by either ClpP1 alone”.

B1: ClpP2 of Streptomyces hawaiiensis NRRL 15010, C-terminally His6-tagged (enzyme, UniProt A0A5B9BIX9 1-235, looked up)
chain: MNQFPGSGIYDRMHAVQDMSASQGRYTGPQAESRYIIPRFVERTSQGIREYDPYAKLFEERVIFLGVQIDDASANDVMAQLLCLESMDPDRDISVYINSPGGSFTALTAIYDTMQYVKPDVQTVCMGQAASAAAVLLAAGTPGKRMALPNARVLIHQPYSETGRGQVSDLEIAANEILRMRSQLEDMLAKHSTTPVEKIREDIERDKILTAEDALSYGLIDQVISTRKMDNSSLR
notes: ClpP2, Clp protease proteolytic subunit 2 of Streptomyces hawaiiensis NRRL 15010, orf CEB94_14105 of GenBank CP021978.1; from the first start codon, unprocessed; also called ClpP2-His6; ClpP2His; source: E. coli SG1146a (ΔclpP), purified (Ni-NTA); also co-expressed with ClpP1 from pETDUET-1, in lysate; not shown: His6, C-terminal, kept
Question: With B1 as the molecule, how does the “stoichiometry N” value [4] read?
Answer: The value was 7.

B2: ClpP2 of Streptomyces hawaiiensis NRRL 15010, untagged (enzyme, UniProt A0A5B9BIX9 1-235, looked up)
chain: B1 chain
notes: ClpP2 of Streptomyces hawaiiensis NRRL 15010, orf CEB94_14105 of GenBank CP021978.1; unprocessed; calculated mass of the heptamer 182.2 kDa; also called native ClpP2; source: E. coli SG1146a (ΔclpP), purified (anion-exchange chromatography)
Question: Which “stoichiometry N” value [5] does the source give for B2 here?
Answer: The value was 7.

From paper PMC9765437, “Antibiotic Acyldepsipeptides Stimulate the Streptomyces Clp-ATPase/ClpP Complex for Accelerated Proteolysis” (mBio, 2022)
